18 molecules from ChEMBL document CHEMBL1128633, “Synthesis and pharmacokinetics of potent carbamate HIV-1 protease inhibitors containing novel high affinity hydroxyethylamine isosteres” (Bioorg Med Chem Lett, 1995) can be followed below.

Each structure is given as a SMILES string.

In one series the test system is CEM-SS. Briefly: Antiviral activity against HIV-1 infected HXB2/CEM-SS cell lines. The format is functional. The note with it: Homo sapiens.
Series [1] concerns the target Human immunodeficiency virus type 1 protease (Human immunodeficiency virus 1, UniProt Q72874). Briefly: In vitro inhibition of HIV-1 protease.
The nature of series [2]: Plasma half-life following oral administration in Fisher rats. The series is classed as ADME, organism-based. The conditions noted are these: rat.
Series [3] can be described thus: Peak plasma level between 0.5 and 1.0 hour in Dawley rats; value ranges from 1021-2551. The format is ADME, organism-based. The note with it: Sprague-Dawley, rat, read-out: Plasma level.
For the next series, the species on record is Rattus norvegicus. The series is described as follows: (§1) Compound was tested for the duration that the plasma drug concentrations remained above the IC95. The format is ADME, organism-based. The conditions noted are these: in vivo.
Series [4] can be described thus: Bioavailability in rat (Fisher) (fasted). The format is ADME, organism-based. The note with it: in vivo.
Series [5] can be described thus: Cmax value was determined between 15 and 30 minutes post administration in fisher rats; value ranges from 200-500. The format is ADME, organism-based. The conditions noted are these: rat, in vivo.
A short description of series [6]: Bioavailability in fasted fisher rats. The note with it: rat, in vivo. The series is classed as ADME, organism-based.
A short description of series [7]: Plasma half-life following oral administration in fisher rats. The series is classed as ADME, organism-based. The note with it: rat.
Series [8] in a line: as §1. The format is ADME, cell-free.

A word on the IC95: it is the concentration at which the effect reaches the 95% level. Low readings indicate an effect from little substance, high ones a need for much substance. A word on the IC50: it is the concentration that gives 50% inhibition. High values mean weaker potency, low ones greater potency. Regarding `CC(C)(C)NC(=O)[C@@H]1C[C@@H]2SCC[C@@H]2CN1C[C@@H](O)[C@H](CSc1ccccc1)NC(=O)O[C@H]1CCS(=O)(=O)C1`, the 95% effect level in the series with CEM-SS (IC95) was put at 59 nM. Inhibition in [1] was half-maximal at 1.7 nM (IC50).
In the series on CEM-SS, `CC(C)[C@@H]1SCC[C@@H]1OC(=O)N[C@@H](Cc1ccccc1)[C@H](O)CN1C[C@H]2CCS[C@H]2C[C@H]1C(=O)NC(C)(C)C` had an IC95 of 686 nM. The same molecule gave an IC50 in [1] of 2.6 nM.
In turn, `CC(C)(C)NC(=O)[C@@H]1C[C@@H]2CCCC[C@@H]2CN1C[C@@H](O)[C@H](Cc1ccccc1)NC(=O)[C@H](CC(N)=O)NC(=O)c1ccc2ccccc2n1` showed an IC95 in the series on CEM-SS of 21 nM. That is a double-digit nanomolar value.
`CC(C)[C@@H]1[C@H](OC(=O)N[C@@H](Cc2ccccc2)[C@H](O)CN2C[C@H]3CCCC[C@H]3C[C@H]2C(=O)NC(C)(C)C)CCS1(=O)=O`: the IC95 in the series on CEM-SS worked out at 85 nM. For the same molecule, the midpoint of inhibition in series [1], the IC50, lay at 4.3 nM.
The matching figures for `CC(C)[C@H]1[C@@H](OC(=O)N[C@@H](Cc2ccccc2)[C@H](O)CN2C[C@H]3CCCC[C@H]3C[C@H]2C(=O)NC(C)(C)C)CCS1(=O)=O`: 273 nM and 8.1 nM.
On the same counts, the results for `C[C@@H]1[C@H](OC(=O)N[C@@H](Cc2ccccc2)[C@H](O)CN2C[C@H]3CCCC[C@H]3C[C@H]2C(=O)NC(C)(C)C)CCS1(=O)=O` are 171 nM and 10 nM.
On the same counts, the results for `CC(C)(C)NC(=O)[C@@H]1C[C@@H]2SCC[C@@H]2CN1C[C@@H](O)[C@H](CSc1ccccc1)NC(=O)O[C@@H]1CCS(=O)(=O)C1` are 59 nM and 2 nM.
Molecule `CC(C)[C@H]1[C@@H](OC(=O)N[C@@H](CSc2ccccc2)[C@H](O)CN2C[C@H]3CCS[C@H]3C[C@H]2C(=O)NC(C)(C)C)CCS1(=O)=O` gave an IC95 in the series on CEM-SS of 89 nM.
In the series with CEM-SS, `CC(C)[C@@H]1[C@H](OC(=O)N[C@@H](Cc2ccccc2)[C@H](O)CN2C[C@H]3CCS[C@H]3C[C@H]2C(=O)NC(C)(C)C)CCS1(=O)=O` came in with an IC95 of 38 nM. Besides, the IC50 in series [1] was 1.3 nM.
On the same counts, the results for `C[C@H]1[C@H](OC(=O)N[C@@H](CSc2ccccc2)[C@H](O)CN2C[C@H]3CCS[C@H]3C[C@H]2C(=O)NC(C)(C)C)CCS1(=O)=O` are 44 nM and 1.4 nM.
Molecule `C[C@H]1OCC[C@H]1OC(=O)N[C@@H](CSc1ccccc1)[C@H](O)CN1C[C@H]2CCS[C@H]2C[C@H]1C(=O)NC(C)(C)C` showed a concentration for an effect of 95% (IC95) in the series with CEM-SS of 2560 nM. Moreover, the IC50 in series [1] is 3 nM.
The matching figures for `C[C@@H]1[C@@H](OC(=O)N[C@@H](CSc2ccccc2)[C@H](O)CN2C[C@H]3CCS[C@H]3C[C@H]2C(=O)NC(C)(C)C)CCS1(=O)=O`: 45 nM and 5.2 nM.
In turn, `CC(C)[C@H]1[C@@H](OC(=O)N[C@@H](Cc2ccccc2)[C@H](O)CN2C[C@H]3CCS[C@H]3C[C@H]2C(=O)NC(C)(C)C)CCS1(=O)=O` displayed a concentration for an effect of 95% (IC95) with CEM-SS of 77 nM. The molecule further returned an IC50 in [1] of 2.6 nM.
A word on the half-life: it is how long it takes for the measured level to halve. A higher half-life goes with slow decline. The term bioavailability denotes the share of a dose that reaches the circulation, judged against a reference dose that is usually intravenous. The low end stands for little systemic uptake, the high end for much systemic uptake. As to `C[C@H]1[C@@H](OC(=O)N[C@@H](CSc2ccccc2)[C@H](O)CN2C[C@H]3CCS[C@H]3C[C@H]2C(=O)NC(C)(C)C)CCS1(=O)=O`, in series [2], the half-life worked out at 1.55 h. The Cmax was 1020 ng/mL in series [3] and 200 ng/mL in series [5]. This molecule displayed a 95% effect concentration (IC95) with CEM-SS of 31 nM. Moreover, it took 0.4 nM to reach half-maximal inhibition in series [1] (IC50). This molecule yielded a Duration in the series listed under Rattus norvegicus of 6 h. In addition, the bioavailability in [4] was 7.4%.
Regarding `CC(C)[C@H]1SCC[C@H]1OC(=O)N[C@@H](Cc1ccccc1)[C@H](O)CN1C[C@H]2CCS[C@H]2C[C@H]1C(=O)NC(C)(C)C`, it took 85 nM to reach the 95% level with CEM-SS (IC95). The molecule further returned an IC50 in series [1] of 0.26 nM.
`CC(C)[C@@H]1[C@H](OC(=O)N[C@@H](CSc2ccccc2)[C@H](O)CN2C[C@H]3CCS[C@H]3C[C@H]2C(=O)NC(C)(C)C)CCS1(=O)=O`: the half-life in [2] worked out at 1.4 h. In addition, the values for the Cmax in [3] and in [5] were 1020 ng/mL and 200 ng/mL, respectively. For the same molecule, the IC95 in the series on CEM-SS is 9 nM. Also, the Duration in the series filed under Rattus norvegicus stood at 3 h. In [4], this molecule yielded a bioavailability of 3.5%.
`C[C@@H]1[C@H](OC(=O)N[C@@H](CSc2ccccc2)[C@H](O)CN2C[C@H]3CCS[C@H]3C[C@H]2C(=O)NC(C)(C)C)CCS1(=O)=O` returned a bioavailability in series [6] of 6.3%. The values for the Cmax in series [3] and in series [5] were 1020 ng/mL and 200 ng/mL, respectively. The molecule further registered a concentration for an effect of 95% (IC95) in the series on CEM-SS of 19 nM. The molecule also came in with an IC50 in series [1] of 0.75 nM. The half-life in series [7] came out at 2.53 h. Moreover, the Duration in [8] was 5 h.
In turn, `C[C@@H]1OCC[C@@H]1OC(=O)N[C@@H](CSc1ccccc1)[C@H](O)CN1C[C@H]2CCS[C@H]2C[C@H]1C(=O)NC(C)(C)C` registered an IC95 in the series on CEM-SS of 162 nM. It took 0.28 nM to reach half-maximal inhibition in [1] (IC50).
